Laboratory results from US11479551B2, “MTA-cooperative PRMT5 inhibitors” (Mirati Therapeutics, Inc., priority 2019, dated 2022).
Like-named read-outs stand apart in the source and are kept apart here.

Molecular target: PRMT5/MEP50 complex (Homo sapiens (Human), UniProt O14744)
Assay: PRMT5:MEP50 FlashPlate Assay (histone H4 peptide substrate, plus and minus MTA)
Assay type: biochemical
Description: The PRMT5 inhibitory activity of compounds of the present invention was determined using either a PRMT5:MEP50 FlashPlate Assay (Reaction Biology Corporation) or a PRMT5:MEP50 HotSpot Assay (Reaction Biology Corporation).
1. PRMT5:MEP50 FlashPlate Assay

[1] = IC50 + 2 μM MTA (nM), in the presence of 2 μM MTA
[2] = in the absence of MTA, read-out: IC50

PRMT5/MEP50 complex, sequence (O14744 2-637): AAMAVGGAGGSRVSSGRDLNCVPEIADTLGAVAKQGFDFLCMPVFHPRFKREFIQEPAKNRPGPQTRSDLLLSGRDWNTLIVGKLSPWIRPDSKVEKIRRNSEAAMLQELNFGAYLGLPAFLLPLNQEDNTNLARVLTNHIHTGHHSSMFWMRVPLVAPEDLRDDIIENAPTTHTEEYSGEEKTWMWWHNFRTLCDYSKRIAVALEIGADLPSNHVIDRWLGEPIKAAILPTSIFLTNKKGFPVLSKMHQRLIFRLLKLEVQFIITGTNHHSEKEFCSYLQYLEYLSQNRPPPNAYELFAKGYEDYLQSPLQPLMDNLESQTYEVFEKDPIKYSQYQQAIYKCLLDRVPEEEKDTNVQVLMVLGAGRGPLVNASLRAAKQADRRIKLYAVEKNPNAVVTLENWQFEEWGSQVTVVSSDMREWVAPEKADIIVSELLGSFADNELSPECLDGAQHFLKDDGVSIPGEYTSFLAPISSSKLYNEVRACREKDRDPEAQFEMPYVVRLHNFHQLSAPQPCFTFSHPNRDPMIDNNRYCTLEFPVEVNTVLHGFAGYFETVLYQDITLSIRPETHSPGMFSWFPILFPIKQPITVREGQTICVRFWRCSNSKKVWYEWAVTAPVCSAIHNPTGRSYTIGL
PRMT5/MEP50 complex, sequence (Q9BQA1 2-342 partner): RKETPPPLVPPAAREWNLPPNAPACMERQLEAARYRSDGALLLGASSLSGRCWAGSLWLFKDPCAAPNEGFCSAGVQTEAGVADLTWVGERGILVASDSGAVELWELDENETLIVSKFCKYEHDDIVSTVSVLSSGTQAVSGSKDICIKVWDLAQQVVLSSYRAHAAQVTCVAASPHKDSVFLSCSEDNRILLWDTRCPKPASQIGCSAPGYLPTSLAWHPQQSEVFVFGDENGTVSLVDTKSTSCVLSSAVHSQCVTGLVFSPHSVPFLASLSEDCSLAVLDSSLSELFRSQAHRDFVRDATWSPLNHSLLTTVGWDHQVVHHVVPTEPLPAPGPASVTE

| SMILES | IC50 [1] | IC50 [2] |
| --- | --- | --- |
| Cc1cccc(Sc2cncc(-c3ccc4c(=O)[nH]nc(CN)c4c3)c2)c1 [Example 4-61, 4-(aminomethyl)-6-(5-(m-tolylthio)pyridin-3-yl)phthalazin-1(2H)-one] | 3 nM | 149 nM |
| NCc1n[nH]c(=O)c2ccc(-c3cncc(Oc4cccnc4)c3)cc12 [Example 4-62, 4-(aminomethyl)-6-(5-(pyridin-3-yloxy)pyridin-3-yl)phthalazin-1(2H)-one] | 120 nM | 2230 nM |
| NCc1n[nH]c(=O)c2ccc(-c3cncc(Oc4ccccn4)c3)cc12 [Example 4-63, 4-(aminomethyl)-6-(5-(pyridin-2-yloxy)pyridin-3-yl)phthalazin-1(2H)-one] | 58 nM | 1380 nM |
| NCc1n[nH]c(=O)c2ccc(-c3cncc(Oc4ncccn4)c3)cc12 [Example 4-64, 4-(aminomethyl)-6-(5-(pyrimidin-2-yloxy)pyridin-3-yl)phthalazin-1(2H)-one] | 230 nM | 4110 nM |
| NCc1n[nH]c(=O)c2ccc(-c3cncc(Oc4cccc(F)c4)c3)cc12 [Example 4-65, 4-(aminomethyl)-6-(5-(3-fluorophenoxy)pyridin-3-yl)phthalazin-1(2H)-one] | 16 nM | 517 nM |
| COc1cccc(Oc2cncc(-c3ccc4c(=O)[nH]nc(CN)c4c3)c2)c1 [Example 4-68, 4-(aminomethyl)-6-(5-(3-methoxyphenoxy)pyridin-3-yl)phthalazin-1(2H)-one] | 10 nM | 243 nM |
| N#Cc1cccc(Oc2cncc(-c3ccc4c(=O)[nH]nc(CN)c4c3)c2)c1 [Example 4-69, 3-((5-(4-(aminomethyl)-1-oxo-1,2-dihydrophthalazin-6-yl)pyridin-3-yl)oxy)benzonitrile] | 10 nM | 624 nM |
| NCc1n[nH]c(=O)c2ccc(-c3cncc(Oc4ccccc4F)c3)cc12 [Example 4-70, 4-(aminomethyl)-6-(5-(2-fluorophenoxy)pyridin-3-yl)phthalazin-1(2H)-one] | 10 nM | 221 nM |
| Cc1ccccc1Oc1cncc(-c2ccc3c(=O)[nH]nc(CN)c3c2)c1 [Example 4-72, 4-(aminomethyl)-6-(5-(o-tolyloxy)pyridin-3-yl)phthalazin-1(2H)-one] | 3 nM | 73 nM |
| Cc1ccc(Oc2cncc(-c3ccc4c(=O)[nH]nc(CN)c4c3)c2)cc1Cl [Example 4-74, 4-(aminomethyl)-6-(5-(3-chloro-4-methylphenoxy)pyridin-3-yl)phthalazin-1(2H)-one] | 1.1 nM | 76 nM |
| Cc1c(Cl)cccc1Oc1cncc(-c2ccc3c(=O)[nH]nc(CN)c3c2)c1 [Example 4-75, 4-(aminomethyl)-6-(5-(3-chloro-2-methylphenoxy)pyridin-3-yl)phthalazin-1(2H)-one] | 0.7 nM | 33 nM |
| Cc1ccc(Oc2cncc(-c3ccc4c(=O)[nH]nc(CN)c4c3)c2)c(C)c1Cl [Example 4-76, 4-(aminomethyl)-6-(5-(3-chloro-2,4-dimethylphenoxy)pyridin-3-yl)phthalazin-1(2H)-one] | 1.3 nM | 31 nM |
| COc1ccc(Oc2cncc(-c3ccc4c(=O)[nH]nc(CN)c4c3)c2)cc1 [Example 4-77, 4-(aminomethyl)-6-(5-(4-methoxyphenoxy)pyridin-3-yl)phthalazin-1(2H)-one] | 1.1 nM | 96 nM |
| COc1ccccc1Oc1cncc(-c2ccc3c(=O)[nH]nc(CN)c3c2)c1 [Example 4-78, 4-(aminomethyl)-6-(5-(2-methoxyphenoxy)pyridin-3-yl)phthalazin-1(2H)-one] | 0.5 nM | 66 nM |
| NCc1n[nH]c(=O)c2ccc(-c3cnn4c3CN(Cc3ccccc3)CC4)cc12 [Example 4-79, 4-(aminomethyl)-6-(5-benzyl-4,5,6,7-tetrahydropyrazolo[1,5-a]pyrazin-3-yl)phthalazin-1(2H)-one] | 27 nM | 930 nM |
| CCN1CCn2ncc(-c3ccc4c(=O)[nH]nc(CN)c4c3)c2C1 [Example 4-80, 4-(aminomethyl)-6-(5-ethyl-4,5,6,7-tetrahydropyrazolo[1,5-a]pyrazin-3-yl)phthalazin-1(2H)-one] | 58 nM | 1570 nM |
| CC(C)N1CCn2ncc(-c3ccc4c(=O)[nH]nc(CN)c4c3)c2C1 [Example 4-81, 4-(aminomethyl)-6-(5-isopropyl-4,5,6,7-tetrahydropyrazolo[1,5-a]pyrazin-3-yl)phthalazin-1(2H)-one] | 18 nM | 826 nM |
| NCc1n[nH]c(=O)c2ccc(-c3cnn4c3CN(C3CC3)CC4)cc12 [Example 4-82, 4-(aminomethyl)-6-(5-cyclopropyl-4,5,6,7 tetrahydropyrazolo[1,5-a]pyrazin-3-yl)phthalazin-1(2H)-one] | 28 nM | 1340 nM |
| CC(=O)N1CCn2ncc(-c3ccc4c(=O)[nH]nc(CN)c4c3)c2C1 [Example 4-84, 6-(5-acetyl-4,5,6,7-tetrahydropyrazolo[1,5-a]pyrazin-3-yl)-4-(aminomethyl)phthalazin-1(2H)-one] | 93 nM | 4040 nM |
| NCc1n[nH]c(=O)c2ccc(-c3cnn4c3CN(C(=O)C3CC3)CC4)cc12 [Example 4-85, 4-(aminomethyl)-6-(5-(cyclopropanecarbonyl)-4,5,6,7-tetrahydropyrazolo[1,5-a]pyrazin-3-yl)phthalazin-1(2H)-one] | 29 nM | 1910 nM |
| NCc1n[nH]c(=O)c2ccc(-c3cnn4c3CN(C(=O)C3CCC3)CC4)cc12 [Example 4-86, 4-(aminomethyl)-6-(5-(cyclobutanecarbonyl)-4,5,6,7-tetrahydropyrazolo[1,5-a]pyrazin-3-yl)phthalazin-1(2H)-one] | 11 nM | 731 nM |
| NCc1n[nH]c(=O)c2ccc(-c3cnn4c3CN(C(=O)C3CCCC3)CC4)cc12 [Example 4-87, 4-(aminomethyl)-6-(5-(cyclopentanecarbonyl)-4,5,6,7-tetrahydropyrazolo[1,5-a]pyrazin-3-yl)phthalazin-1(2H)-one] | 22 nM | 1590 nM |
| NCc1n[nH]c(=O)c2ccc(-c3cnn4c3CN(C(=O)C3CCCCC3)CC4)cc12 [Example 4-88, 4-(aminomethyl)-6-(5-(cyclohexanecarbonyl)-4,5,6,7-tetrahydropyrazolo[1,5-a]pyrazin-3-yl)phthalazin-1(2H)-one] | 45 nM | 1710 nM |
| NCc1n[nH]c(=O)c2ccc(-c3cnn4c3CN(C(=O)C35CC(C3)C5)CC4)cc12 [Example 4-89, 4-(aminomethyl)-6-(5-(bicyclo[1.1.1]pentane-1-carbonyl)-4,5,6,7-tetrahydropyrazolo[1,5-a]pyrazin-3-yl)phthalazin-1(2H)-one] | 64 nM | 1220 nM |
| NCc1n[nH]c(=O)c2ccc(-c3cnn4c3CN(C(=O)c3ccccc3)CC4)cc12 [Example 4-90, 4-(aminomethyl)-6-(5-benzoyl-4,5,6,7-tetrahydropyrazolo[1,5-a]pyrazin-3-yl)phthalazin-1(2H)-one] | 82 nM | 2730 nM |
| Cn1ncc(-c2ccc3c(=O)[nH]nc(CN)c3c2)c1-c1cccc(F)c1 [Example 4-91, 4-(aminomethyl)-6-(5-(3-fluorophenyl)-1-methyl-1H-pyrazol-4-yl)phthalazin-1(2H)-one] | 16 nM | 249 nM |
